Test system: P5, P693 and CEM cells
Assay: Mitochondrial membrane potential by JC-1 staining and flow cytometry
Assay type: cell-based, human
Settings: 24 h, co-stimulation with cisplatin 2 µg/ml on top of DEX; Fig. 3a
Description: • (a) P5, P693 or CEM cells, either untreated (CO) or stimulated with cisplatin (CIS, 2 µg/ml) were incubated in the absence (white bars) or presence (black bars) of DEX (1 µM). 24 h later cells were stained with the cationic dye JC-1 which indicates mitochondrial depolarization by an increase in green fluorescence. The percentage of green-fluorescent cells was determined by flow cytometry. • (b) P5 cells were treated as described above. 6 or 24 h later mitochondrial fractions were prepared and assayed by Western blotting using a monoclonal antibody which specifically detects the 15 kDa cytochrome c protein. The results depicted here have been performed three times with similar outcome.
• (A) Cell culture. […] The mice were given 0.28 mg/L DEX in drinking water, and the amount of water consumed was monitored. […] The tumour volumes were measured using callipers, and calculated using, as an approximation, the formula for volume of a hemi-ellipsoid: π(width^2 x length)/6. […] Early apoptotic changes were identified by staining of cells with fluoresceinthiocyanate (FITC)-conjugated annexin V and propidium iodide (Becton Dickinson, Heidelberg, Germany) and analysed by flow cytometry (FACScan, Becton Dickinson) as described (Herr et al., EMBO J. 16 (1997), 6200-6208) • (E) Immunohistochemistry. […] Protein expression was detected by Western blotting as described (Herr et al., 1997). […]

N.N.[Cl][Pt][Cl] [cisplatin]
percentage of green fluorescence (mitochondrial damage): further enhanced
